# No end group written: not given here.
# Legend:
# [1] = Cytotoxicity, alamarBlue, BHK-21 cells; format: cell-based, hamster; details: hamster, 2 h at 37 °C, 0.1–100 µM, alamarBlue fluorescence, non-linear fit, concentration reducing viability by 50%, n ≥ 3, read-out: EC50 (effective cytotoxic concentration)
# Experimental: (§1) Cytotoxicity was evaluated using the baby hamster kidney cell line (BHK-21) included in F2H®-Kit Basic (Chromotek, Planegg-Martinsried, Germany). The BHK-21 cells were grown in 25-cm^2 cell culture flasks (Greiner Bio One, Frickenhausen, Germany) containing Dulbecco’s Modified Eagle’s Medium (DMEM) supplemented with 4.5 g/L glucose, 110 mg/L sodium pyruvate and L-glutamine, and 10% fetal bovine serum (FBS), and were maintained in an NU-5810 incubator (ibs tecnomara, Fernwald, Germany) at 37 °C with a 5% CO2 atmosphere. The cells were subcultured at ~90% confluence by detaching with 0.25% trypsin and 0.03% EDTA (Sigma-Aldrich, St Louis, MO, USA). The AMPs were dissolved in water and diluted to final concentrations of 0.1, 1, 10 and 100 µM in DMEM.
# (§2) BHK-21 cells were prepared and tested as previously described. Confluent cells were detached, counted and seeded at a concentration of 8.5 × 10^4 cell/mL in a 96-well culture plate (Greiner Bio One-Cell Star) 48 h before each experiment. The cells were rinsed with 100 µL PBS before adding 100 µL of the AMP solution and incubating for 2 h at 37 °C. The AMP solution was then removed and the cells were rinsed again with PBS before staining with 10% v/v alamarBlue™ Dye (Thermo Fisher Scientific, Schwerte, Germany) in DMEM for 1 h. The fluorescence of the metabolized alamarBlue™ Dye was measured in an Eon microplate reader using excitation and emission filters of 528 and 590 nm, respectively. DMEM and cells exposed to DMEM without AMPs were included as a blank reference and negative control, respectively. Four independent experiments were carried out for each AMP concentration in triplicate. To assess the percentage of viable cells compared to the control, the data were analyzed with GraphPad Prism v5.0 software using non-linear regression to fit the curve (Figure S2). The EC50 was reported as the AMP concentration that reduces cell viability by 50%.
# [2] = test system: baby hamster kidney cells (BHK21); assay: Cytotoxicity, alamarBlue, BHK-21 cells; format: cell-based; details: 2 h at 37 °C, 0.1–100 µM, alamarBlue fluorescence, non-linear fit, n ≥ 3
# Experimental: as §1, §2
# [3] = test system: Pseudomonas aeruginosa (DSM50071); assay: Growth inhibition assay (MIC), P. aeruginosa; format: cell-based; details: LB, 37 °C, highest concentration tested 250 µM
# Experimental: (§3) The minimal inhibitory concentration (MIC) of each AMPs was determined against the Gram-positive bacteria Listeria monocytogenes (DSM20600), L. grayi (DSM20601), L. fleischmannii (DSM24998), Staphylococcus aureus (DSM2569) and Micrococcus luteus (DSM20030), and the Gram-negative species Escherichia coli (D31) and Pseudomonas aeruginosa (DSM50071). The scorpion peptides were prepared at concentrations of 0.015–250 μM. The assays were carried out in 384-well plates (Greiner Bio One, Frickenhausen, Germany) using Brain Heart Infusion Broth (BHIB) medium for Listeria spp., Tryptic Soy Broth (TSB) for S. aureus, and lysogeny broth (LB) for the others. The bacteria were cultivated overnight at either 37 °C (Listeria spp., S. aureus, E. coli and P. aeruginosa) or 30 °C (M. luteus) and subcultured in fresh media before the growth inhibition assays. Growth inhibition was measured as previously described.
# [4] = test system: L. fleischmannii (DSM24998); assay: Growth inhibition assay (MIC), L. fleischmannii; format: cell-based, Listeria fleischmannii; details: 384-well plates, BHIB, 37 °C, peptide 0.015–250 µM; growth totally inhibited; average of n ≥ 3; dash = no inhibition
# Experimental: as §3
# [5] = test system: Micrococcus luteus (DSM20030); assay: Growth inhibition assay (MIC), M. luteus; format: cell-based; details: 384-well plates, LB, 30 °C, peptide 0.015–250 µM; MIC = concentration at which growth was totally inhibited; average of n ≥ 3; dash = no inhibition
# Experimental: as §3
# [6] = test system: pig erythrocytes; assay: Hemolytic activity on pig erythrocytes; format: cell-based; details: 1 h at 37 °C; for HC10 (hemolytic concentration) / HC90 (hemolytic concentration) / HC50 (hemolytic concentration): 6.25–100 µM, absorbance 570 nm, non-linear fit; for HC10 (hemolytic concentration) / HC90 (hemolytic concentration): n ≥ 3; for HC50 (hemolytic concentration): n ≥ 3, n.c. (100) = not convergent at 100 µM
# Experimental: The hemolytic activity of each AMP was determined using pig erythrocytes. Serial dilutions (6.25–100 µM) of each AMP were prepared, and after incubation for 1 h at 37 °C the cells were centrifuged and the absorbance of the supernatant was measured at 570 nm using an Eon Microplate Spectrophotometer (BioTek Instruments, Winooski, VT, USA). Three independent experiments were carried out for each concentration in triplicate. PBS and 10% Triton X–100 were used as negative and positive controls, respectively. The percentage hemolysis was calculated using the formula 100((Apeptide–APBS)/(Atriton–APBS)). The AMP concentration causing 50% hemolysis (HC50) of the pig erythrocytes was determined by non-linear regression with the data fitted to the logistical sigmoidal equation, using GraphPad Prism v5.0 (GraphPad Software, San Diego, CA, USA) (Figure S2).
# [7] = test system: L. grayi (DSM20601); assay: Growth inhibition assay (MIC), L. grayi; format: cell-based, Listeria grayi; details: 384-well plates, BHIB, 37 °C, peptide 0.015–250 µM; growth totally inhibited; average of n ≥ 3; dash = no inhibition
# Experimental: as §3
# [8] = test system: Escherichia coli (D31); assay: Growth inhibition assay (MIC), E. coli; format: cell-based; details: 384-well plates, LB, 37 °C, peptide 0.015–250 µM; growth totally inhibited; average of n ≥ 3; dash = no inhibition
# Experimental: as §3
# [9] = test system: seven different bacteria; assay: Antibacterial activity against all seven bacteria tested (summary); format: cell-based; details: approximate overall value
# Experimental: as §3
# [10] = test system: Listeria monocytogenes (DSM20600); assay: Growth inhibition assay (MIC), L. monocytogenes; format: cell-based; details: 384-well plates, BHIB, 37 °C, peptide 0.015–250 µM; growth totally inhibited; average of n ≥ 3; dash = no inhibition
# Experimental: as §3
Substance,CC50 at 2 h [1] [µM],EC10 (effective cytotoxic concentration) [2] [µM],EC90 (effective cytotoxic concentration) [2] [µM],MIC P. aeruginosa (concentration inhibiting growth) [3] [µM],MIC L. fleischmannii [4] [µM],MIC M. luteus [5] [µM],HC10 (hemolytic concentration) [6] [µM],HC90 (hemolytic concentration) [6],HC50 (hemolytic concentration) [6] [µM],MIC L. grayi [7] [µM],MIC E. coli [8] [µM],MIC against all seven bacteria tested [9],MIC L. monocytogenes [10] [µM],"percentage of hemolysis ([6]; 100 µM peptide (highest tested), 10% Triton X-100 = 100% hemolysis)"
GFWGKLWEGVKNAI-NH2 [UyCT1],17.4,0.65,52.12,60,4,1,31.5,644.46 µM,142.5,4,4,~ 4 µM,4,–
GFWGKLWEGVKNAIKKK-NH2 [D11],17.8,0.66,53.43,30,1,0.25,39.76,"30,984.53 µM",1110,1,4,~ 1 µM,2,~ 10%

# — paper PMC5308254, “Bioactivity of Natural and Engineered Antimicrobial Peptides from Venom of the Scorpions Urodacus yaschenkoi and U. manicatus” (Toxins, 2017)
